Results taken from patent US20230173064A1, “DETOXIFIED LIPOPOLYSACCHARIDES (LPS), NATURALLY NON-TOXIC LPS, AND USES THEREOF” (priority 2020, published 2023).
Like-named read-outs stand apart in the source and are kept apart here.

Experiments:
[1] = tested on: rabbits; experiment: Rabbit Pyrogen Test (RPT), Ph. Eur. 5.1.10; type: in vivo; settings: intravenous, sum of temperature rises of 3 rabbits not above 1.15° C.
Procedure: Standardized Rabbit Pyrogen Test (RPT) were conducted according to European Pharmacopeia (Ph. Eur. 5.1.10). Product tested includes the naturally-occurring LPS B2 0.0 and LPS W1 0.0 and modified LPS B2 0.1, LPS B2 1.1 and LPS B2 1.2, as well as a non-GMP equivalent of the GLA from Merck (Avanti Polar Lipids).
Briefly, groups of three rabbits, weighing 2.5 to 3 kg received one intravenous injection of the tested product in 1 mL/kg of body weight.
For each candidate, several dose ranges were tested from 0.1 to 1000 ng/kg. For each animal, the baseline rectal temperature was recorded. After 30 minutes, the rabbits were inoculated in the ear vein. Temperatures were recorded every 6.5 minutes for 3 hours. The rising temperature of the rabbit body temperature is that the highest body temperature measure within the 3 hours, minus the normal body temperature.
Several doses of each candidates were tested to define their MNPD corresponding to the highest dose of a given product that can be administered in rabbits without inducing febrile reaction.
The pyrogenic activity of modified LPS B2 1.2 and LPS B2 1.3 was evaluated in vivo using the rabbit pyrogen test (RPT), as described in section 5.1.10 of the European Pharmacopeia. Both LPS were administered at the same dose of 450 ng/kg. Two experiments were performed for each modified LPS, with 3 rabbits/experiment (A1, A2 and A3).

[2] = tested on: human B-lymphoma tumor model (RL cells) in CB17-SCID mice; experiment: Tumor rejection assay, therapeutic setting, human B-lymphoma RL cells engrafted in CB17-SCID mice; type: in vivo, mouse; settings: for growth of established RL tumor cells: once a week for 3 weeks, LPS 0.5 mg/kg i.v., GLA 0.5 mg/kg, rituximab 30 mg/kg i.p., vs non-treated mice
Procedure: The therapeutic efficacy of native (LPS B2 0.0 and LPS W1 0.0) and modified (LPS B2 0.1 and LPS B2 1.1) LPS, alone or in combination with rituximab, was analyzed in vivo against a human B-lymphoma tumor model (RL cells) using tumor rejection assays with a therapeutic setting in mice.
Cohort of CB17-SCID mice were engrafted subcutaneously in the abdominal right flank with 5×10^6 human B-lymphoma cells (RL cells). When the tumor volume had reached 100 mm^3 (at day 20), mice were randomized (n=6 mice/group), and the first treatment was administered.
(§1) Mice were treated once a week for 3 weeks (at days 20, 27 and 34) with LPS B2 0.0, LPS B2 0.1, LPS B2 1.1 or LPS W1 0.0, used alone or in combination with rituximab (Genentech), an anti-human CD20 mAb.
(§2) Groups of mice treated with GLA (Merck/Immune Design Corp.) administered either intravenously or intraperitoneally at 0.5 mg/kg, alone or in combination with rituximab, were included for comparison.
(§3) LPS B2 0.0, LPS B2 0.1, LPS B2 1.1 or LPS W1 0.0 were administered intravenously at a dose of 0.5 mg/kg. Rituximab was administered intraperitoneally at a dose of 30 mg/kg.
Tumor-bearing mice injected with PBS (control) or rituximab alone were used as controls.
The tumor volume was measured twice a week (length x width) with a caliper. The tumor volume was determined using the formula: […]

[3] = tested on: human PBMC (CryoBlood); settings: literature / vendor values; cited from earlier work
[4] = tested on: CB17-SCID mice; experiment: Tolerance of intravenous injection in tumor-bearing CB17-SCID mice; type: in vivo, mouse; settings: 0.5 mg/kg intravenously
Procedure: as §1, §2, §3

[5] = Dynamic Light Scattering (DLS) aggregate size analysis in water and PBS suspensions; type: physicochemical; settings: for average particle size: 0.2 mg/mL, DLS at 25° C., average of triplicate
Procedure: Determination of aggregates sizes of LPS B2 0.0, LPS B2 0.1, LPS B2 1.1 and of synthetic GLA (PHAD®, from Avanti® Polar Lipids, Inc.) in aqueous and PBS suspensions was determined by Dynamic Light Scattering (DLS) using the Malvern Instruments Zetasizer Nano S90 with a scattering angle Θ=90°, incident laser wavelength λ=633 nm and temperature at 25° C.
Samples for measurements were prepared as follows: 200 μg of dry samples in 4 mL glass vials were suspended in 1 mL of water or PBS. LONZA LAL Reagent water and Gibco PBS pH 7.4 (without CaCl2 or MgCl2) were used. The solvents were added progressively (250 μL plus 250 μL plus 500 μL). Three homogenization cycles were applied after each addition of a solvent, consisting in a 10-second sonication in a Fisher Scientific FB 15050 ultrasonic bath and 5 seconds vigorous vortex agitation.
800 μL of each suspension were transferred to a disposable Eppendorf polystyrene semi-micro cuvette and DLS measurements were performed three times.
LPS SM1 V1 was diluted in PBS pH 7.5 at 50 nmol/mL, and filtered through a 200-nm filter to remove large debris and aggregates. No nucleic acid contaminants and 2-4 μg/mL of protein contaminants were measured in the sample.

[6] = tested on: rabbits; settings: literature values; cited from earlier work
[7] = tested on: Osa tumor cells in Sprague-Dawley (SD) rats; experiment: Tumor rejection assay, orthotopic rat model of osteosarcoma (Osa); type: in vivo
Procedure: The therapeutic efficacy of the modified LPS B2 1.3 was analyzed in vivo against an orthotopic rat model of osteosarcoma (Osa) using tumor rejection assays with a therapeutic setting.
Sprague-Dawley (SD) rats were engrafted with Osa tumor cells in a paratibial position (left posterior tibia) after a periosteal abrasion. When tumors reached an average tumor volume of 150 mm^3, rats (n=3 to 8/group) were randomized into LPS B2 1.3, Doxorubicin (Doxo), or PBS (Control) groups.
LPS B2 1.3 was administered intravenously into the tail vein, twice a week for 2 weeks at 0.25 mg/kg.
Doxorubicin was administered intraperitoneally twice a week for 2 weeks at 1 mg/kg.
Tumor growth and survival were monitored twice a week. Tumor volumes V were assessed according to the following formula: […]
with L the longest and C the shortest tumor diameter.

Question: For `CCCCCCCCCCCCCC(=O)O[C@H](CCCCCCCCCCC)CC(=O)O[C@@H]1[C@@H](NC(=O)C[C@H](CCCCCCCCCCC)OC(=O)CCCCCCCCCCCCC)[C@H](OC[C@H]2O[C@H](O)[C@H](NC(=O)C[C@H](O)CCCCCCCCCCC)[C@@H](OC(=O)C[C@H](O)CCCCCCCCCCC)[C@@H]2O)O[C@H](CO)[C@H]1OP(=O)(O)O` [GLA, glucopyranosyl lipid A], which “MNPD (maximum non-pyrogenic dose)” value [1] is on record?
Answer: 0.034 µg/kg

Question: What about the complete tumor regression ([2]; GLA 0.5 mg/kg injected intraperitoneally in combination with rituximab) of the same compound?
Answer: 50%

Question: What about the “growth of established RL tumor cells” value ([2]; single agent) of the same compound?
Answer: did not show any impairment

Question: What about the “MAT (pyrogenicity as described in the literature)” value [3] of the same compound?
Answer: 15700^2 EEU/μg

Question: And the “altered aspect and behavior (toxicity) after intravenous administration” value [4]?
Answer: had to be euthanized

Question: What about the average particle size ([5]; in PBS) of the same compound?
Answer: about 529 nm

Question: What about the DLS profile ([5]; in water) of the same compound?
Answer: monodisperse

Question: And the “size of nano-particles / aggregates” value ([5]; in water or PBS)?
Answer: > 500 nm

Question: What about the solubility / dispersibility ([5]; in water or PBS, without dispersing reagents or special treatment) of the same compound?
Answer: precipitates

Question: What about the “appearance of the final 0.2 mg/mL suspensions” value ([5]; in water or in PBS) of the same compound?
Answer: slightly opaque but homogeneous

Question: What about the average particle size ([5]; in water) of the same compound?
Answer: about 544 nm

Question: Which “MNPD (maximum non-pyrogenic dose)” value [6] does the source give for `CCCCCCCCCCC[C@H](CC(=O)N[C@H]1[C@H](OC[C@H](NC(=O)C[C@@H](CCCCCCCCCCC)OCCCCCCCCCC)C(=O)O)O[C@H](CO)[C@@H](OP(=O)(O)O)[C@@H]1OC(=O)C[C@@H](CCCCCCCCCCC)OCCCCCCCCCC)OCCCCCCCCCC` [GSK1795-091] here?
Answer: 0.0025 µg/kg

Question: Which results are given for `COc1cccc2c1C(=O)c1c(O)c3c(c(O)c1C2=O)C[C@@](O)(C(=O)CO)C[C@@H]3O[C@H]1C[C@H](N)[C@H](O)[C@H](C)O1` [doxorubicin]?
Answer: growth of established Osa tumor cells ([7]; LPS B2 1.3 0.25 mg/kg i.v., doxorubicin 1 mg/kg i.p., twice a week for 2 weeks, vs PBS (and doxorubicin)): No significant difference in tumor growth; animals alive (survival) ([7]; day 31): 40%; complete tumor regressions (complete responses) ([7]; day 31): no tumor regressions

Question: Which results are given for “rituximab: an anti-CD20 monoclonal antibody (Genentech)”?
Answer: complete tumor regression ([2]; single agent, D54 post-tumor challenge): 17%; growth of established RL tumor cells ([2]; single agent): significantly impair the growth
